According to ChEMBL document CHEMBL4265960, “Dithiocarbamates: Efficient metallo-β-lactamase inhibitors with good antibacterial activity when combined with meropenem” (Bioorg Med Chem Lett, 2018):
Converted amounts (≈) assume the structure as drawn. The source made the active and inactive calls. No cut-off for these calls is given here.

Assays:
Escherichia coli [1] = test: Inhibition of Escherichia coli IMP4 assessed as potentiation of meropenem-induced antibacterial activity by measuring zone of inhibition at 10 uL after 16 to 18 hrs by disc diffusion method (reference value: 9.8 +/- 0.6 millimeter)
Escherichia coli [2] = test: Inhibition of Escherichia coli IMP4 assessed as potentiation of meropenem-induced bactericidal activity by measuring reduction in bacterial colonies at 4 to 8 times MIC incubated for 3 hrs followed by replating on agar plates and further incubated for 16 to 18 hrs measured for 24 hrs by time kill assay
[3] = target: T1, Metallo-beta-lactamase NDM-4 (Escherichia coli) (UniProt H6WZS9); test: Inhibition of Escherichia coli NDM4 assessed as potentiation of meropenem-induced antibacterial activity by measuring zone of inhibition at 10 uL after 16 to 18 hrs by disc diffusion method (reference value: 9.6 +/- 0.5 millimeter)
T1 sequence (whole entry): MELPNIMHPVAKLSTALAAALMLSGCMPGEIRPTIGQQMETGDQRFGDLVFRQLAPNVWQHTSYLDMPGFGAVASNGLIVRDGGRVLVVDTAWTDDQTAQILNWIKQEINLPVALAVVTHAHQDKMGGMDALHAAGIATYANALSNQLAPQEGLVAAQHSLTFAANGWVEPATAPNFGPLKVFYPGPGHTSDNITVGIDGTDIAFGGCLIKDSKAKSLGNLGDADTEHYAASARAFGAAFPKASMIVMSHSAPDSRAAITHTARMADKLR

Escherichia coli [4] = test: Inhibition of Escherichia coli IMP4 assessed as potentiation of meropenem-induced antibacterial activity by measuring meropenem MIC at 64 ug/ml after 16 to 18 hrs by broth microdilution method (reference value: 20 to 160 ug/ml)
[5] = target: Beta-lactamase NDM-1 (Escherichia coli) (UniProt E5KIY2)
Description: Inhibition of Escherichia coli NDM1 assessed as potentiation of meropenem-induced antibacterial activity by measuring meropenem MIC at 64 ug/ml after 16 to 18 hrs by broth microdilution method (Rvb = 10 to 320 ug/ml)

Proteus mirabilis [6] = test: Inhibition of Proteus mirabilis NDM1 assessed as potentiation of meropenem-induced antibacterial activity by measuring meropenem MIC at 64 ug/ml after 16 to 18 hrs by broth microdilution method (reference value: 20 to 160 ug/ml)
Citrobacter freundii [7] = test: Inhibition of Citrobacter freundii NDM1 assessed as potentiation of meropenem-induced antibacterial activity by measuring meropenem MIC at 64 ug/ml after 16 to 18 hrs by broth microdilution method (reference value: 20 ug/ml)
[8] = target: Metallo-beta-lactamase type 2 (Klebsiella pneumoniae) (UniProt C7C422)
Description: Inhibition of Klebsiella pneumoniae NDM1 assessed as potentiation of meropenem-induced antibacterial activity by measuring meropenem MIC at 64 ug/ml after 16 to 18 hrs by broth microdilution method (Rvb = 40 to 80 ug/ml)

[9] = target: Beta-lactamase (Klebsiella pneumoniae) (UniProt Q4LDF1)
Description: Inhibition of Klebsiella pneumoniae IMP4 assessed as potentiation of meropenem-induced antibacterial activity by measuring meropenem MIC at 64 ug/ml after 16 to 18 hrs by broth microdilution method (Rvb = 20 to 40 ug/ml)

Erythrocyte = test: Hemolytic activity against sheep RBC at 1.953 to 1000 ug/ml after 1 hr; assay type: ADME, cell-based, Ovis aries
HeLa [10] = test: Cytotoxicity against human HeLa cells at 32 ug/ml after 24 hrs by calcein-AM/propidium iodide staining based fluorescence microscopic analysis; assay type: cell-based
Escherichia coli [11] = test: Toxicity against Escherichia coli harboring IMP4 assessed as reduction in bacterial growth after 16 to 18 hrs by broth microdilution method; assay type: organism-based
Escherichia coli [12] = test: Toxicity against Escherichia coli harboring NDM1 after 16 to 18 hrs by broth microdilution method; assay type: organism-based
Escherichia coli [13] = test: Inhibition of Escherichia coli IMP4 assessed as potentiation of meropenem-induced bactericidal activity by measuring bacterial count at 8 times MIC incubated for 24 hrs followed by replating on agar plates and further incubated for 16 to 18 hrs measured for 24 hrs by time kill assay
Proteus mirabilis [14] = test: Inhibition of Proteus mirabilis NDM1 assessed as potentiation of meropenem-induced antibacterial activity by measuring fold reduction in meropenem MIC at 64 ug/ml after 16 to 18 hrs by broth microdilution method relative to meropenem alone
HeLa [15] = test: Cytotoxicity against human HeLa cells after 24 hrs by CCK8 assay; assay type: cell-based
Citrobacter freundii [16] = test: Inhibition of Citrobacter freundii NDM1 assessed as potentiation of meropenem-induced antibacterial activity by measuring fold reduction in meropenem MIC at 64 ug/ml after 16 to 18 hrs by broth microdilution method relative to meropenem alone
Escherichia coli [17] = test: Inhibition of Escherichia coli IMP4 assessed as potentiation of meropenem-induced bactericidal activity by measuring reduction in bacterial colonies at 8 times MIC incubated up to 8 hrs followed by replating on agar plates and further incubated for 16 to 18 hrs measured for 24 hrs by time kill assay
[18] = target: Beta-lactamase NDM-1 (Escherichia coli) (UniProt E5KIY2); remark: listed apart in the source
Description: Inhibition of Escherichia coli NDM1 assessed as potentiation of meropenem-induced bactericidal activity by measuring meropenem MBC after 20 to 24 hrs in presence of 50% blood

[19] = target: Beta-lactamase NDM-1 (Escherichia coli) (UniProt E5KIY2); remark: listed apart in the source
Description: Inhibition of Escherichia coli NDM1 assessed as potentiation of meropenem-induced bactericidal activity by measuring meropenem MBC after 20 to 24 hrs in presence of 50% serum

Escherichia coli [20] = test: Inhibition of Escherichia coli IMP4 assessed as potentiation of meropenem-induced antibacterial activity by measuring bacterial growth at 64 ug/ml after 16 to 18 hrs by broth microdilution method (reference value: 93.43 +/- 2.12%); set-up: scale not given: the % may be the effect or the level left
Escherichia coli [21] = test: Inhibition of Escherichia coli IMP4 assessed as potentiation of meropenem-induced antibacterial activity by measuring reduction in bacterial growth at 64 ug/ml after 16 to 18 hrs in presence of ZnCl2 by broth microdilution method
Escherichia coli [22] = test: Inhibition of Escherichia coli IMP4 assessed as potentiation of meropenem-induced bactericidal activity by measuring bacterial count at 4 times MIC incubated for 24 hrs followed by replating on agar plates and further incubated for 16 to 18 hrs measured for 24 hrs by time kill assay
Escherichia coli [23] = test: Inhibition of Escherichia coli IMP4 assessed as potentiation of meropenem-induced bactericidal activity by measuring reduction in bacterial colonies at 8 times MIC incubated up to 3 hrs followed by replating on agar plates and further incubated for 16 to 18 hrs measured for 24 hrs by time kill assay
Escherichia coli [24] = test: Inhibition of Escherichia coli IMP4 assessed as potentiation of meropenem-induced bactericidal activity by measuring bacterial count at 4 times MIC incubated for 8 hrs followed by replating on agar plates and further incubated for 16 to 18 hrs measured for 24 hrs by time kill assay

SMILES	inhibition zone (IZ) (Escherichia coli [1])	inhibition zone (IZ) [3]	MIC (Escherichia coli [4])	MIC [5]	MIC (Proteus mirabilis [6])	MIC (Citrobacter freundii [7])	MIC [8]	MIC [9]	other results
O=C(O)CN1CCN(CC(=O)O)CCN(CC(=O)O)CC1	20.3 mm	22.9 mm	–	–	–	–	–	–	Activity (Escherichia coli [2]): Active
CCCCCCNC(=S)S	inactive	inactive	2 to 16 µg/mL	16 µg/mL (≈ 90.2 µM)	0.25 µg/mL	inactive	inactive	16 µg/mL (≈ 90.2 µM)	–
S=C(S)N1CCN(C(=S)S)CC1	inactive	inactive	4 to 16 µg/mL	8 to 16 µg/mL (≈ 33.6 to 67.1 µM)	4 to 8 µg/mL	2 µg/mL	4 to 16 µg/mL (≈ 16.8 to 67.1 µM)	8 to 16 µg/mL (≈ 33.6 to 67.1 µM)	–
CCCCCCN(CCCCCC)C(=S)S	inactive	inactive	4 to 16 µg/mL	8 µg/mL (≈ 30.6 µM)	8 to 16 µg/mL	8 µg/mL	8 to 16 µg/mL (≈ 30.6 to 61.2 µM)	16 µg/mL (≈ 61.2 µM)	–
CCCCCCCCCCCCCCNC(=S)S	inactive	inactive	inactive	inactive	inactive	inactive	inactive	inactive	–
CCN(CC)C(=S)[S][Na] [DITIOCARB SODIUM]	–	–	–	–	–	–	–	–	Activity (Erythrocyte): Non-Toxic; Activity (HeLa [10]): Non-Toxic; Activity (Escherichia coli [11]): Non-Toxic; MIC (Escherichia coli [12]): > 128 µg/mL
S=C([S-])N1CCCC1.[Na+]	22.8 mm	22.1 mm	< 16 µg/mL	2 µg/mL	2 to 8 µg/mL	–	< 0.0312 µg/mL	< 0.0312 µg/mL	Activity (Erythrocyte): Non-Toxic; Activity (HeLa [10]): Non-Toxic; Activity (Escherichia coli [13]): 9 to 10 log10CFU/ml; Activity (Escherichia coli [11]): Non-Toxic; fold change (FC) (Proteus mirabilis [14]): < 320; IC50 (HeLa [15]): 349 µg/mL; MIC (Escherichia coli [12]): > 128 µg/mL
S=C([S-])N1CCCCC1.[Na+]	24.2 mm	23.9 mm	< 16 µg/mL	0.25 µg/mL	4 to 16 µg/mL	–	< 0.0312 µg/mL	< 0.0312 µg/mL	Activity (Erythrocyte): Non-Toxic; Activity (HeLa [10]): Non-Toxic; fold change (FC) (Citrobacter freundii [16]): < 320; Activity (Escherichia coli [17]): Active; Activity (Escherichia coli [11]): Non-Toxic; MBC [18]: 1 µg/mL; fold change (FC) (Proteus mirabilis [14]): < 320; IC50 (HeLa [15]): 634 µg/mL; MBC [19]: < 0.0312 µg/mL; Activity (Escherichia coli [20]): 3.55%; MIC (Escherichia coli [12]): > 128 µg/mL; Activity (Escherichia coli [21]): inactive; Activity (Escherichia coli [22]): 1 to 2 log10CFU/ml
S=C(S)N1CCOCC1	–	–	2 to 16 µg/mL	8 µg/mL (≈ 49 µM)	16 µg/mL	2 µg/mL	4 to 16 µg/mL (≈ 24.5 to 98 µM)	8 to 16 µg/mL (≈ 49 to 98 µM)	–
CCN(CC)C(=S)[S-].[Na+] [DITIOCARB SODIUM]	17.2 mm	18.9 mm	< 16 µg/mL	1 to 16 µg/mL	0.5 to 4 µg/mL	< 0.0312 µg/mL	< 2 µg/mL	< 2 µg/mL	IC50 (HeLa [15]): > 1280 µg/mL; Activity (Escherichia coli [23]): Active; Activity (Escherichia coli [24]): 3 to 4 log10CFU/ml
CCCCCCCCN(CCCCCCCC)C(=S)S	inactive	inactive	1 to 8 µg/mL	4 to 16 µg/mL (≈ 12.6 to 50.4 µM)	2 to 4 µg/mL	4 µg/mL	1 to 8 µg/mL (≈ 3.15 to 25.2 µM)	< 1 µg/mL	–
